According to patent publication US20230085307A1, “PYRIDAZINONE COMPOUND AND HERBICIDE” (NISSAN CHEMICAL CORPORATION, priority 2019, published 2023):

Assays:
[1] = tested on: persian speedwell; assay: Test Example 5: herbicidal effect by foliage application, plastic box (Table 20, symbol R); format: in vivo, Persian speedwell (Veronica persica); settings: foliage application; for R: persian speedwell, herbicidal effect (criteria 0-5): AAH 320 g/ha, evaluated three weeks after application
Summary of the method: (§1)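 Sow seeds spot-wise in sterilized diluvial soil; cover with ~1.5 cm soil. Grow 14 days in greenhouse, 25° C. to 30° C. Spray foliage with emulsion diluted to predetermined amount. Rate effect after 3 weeks.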

[2] = tested on: oval-leafed pondweed; assay: Test Example 1: herbicidal activity, application before weed generation under submerged conditions (Table 16, symbol C); format: in vivo, oval-leafed pondweed (Monochoria vaginalis); settings: 320 g/ha applied herbicide
Summary of the method: (§2)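 Alluvial soil was flooded to 4 cm depth, weed seeds were sown mixed and 2.5-leaf rice seedlings were transplanted. On sowing day, the compound's emulsion, diluted in water to a set dose, was applied to the water surface. Plants grew at 25–30 °C and were scored 0–5 after three weeks.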

[3] = tested on: persian speedwell; assay: Test Example 4: herbicidal effect by soil treatment (Table 19, symbol R); format: in vivo, Persian speedwell (Veronica persica); settings: amount of applied herbicide 320 g/ha
Summary of the method: (§3)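 Soil-surface application: an emulsion agent diluted with water to the predetermined dose is sprayed uniformly over seeds lying under roughly 1.5 cm of sterilized diluvial soil. Boxes stay in a greenhouse at 25° C. to 30° C. Three weeks later, each species is graded on previously defined criteria.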

[4] = tested on: southern crabgrass; assay: Test Example 5: herbicidal effect by foliage application, plastic box (Table 20, symbol F); format: in vivo, southern crabgrass (Digitaria ciliaris); settings: foliage application; for F: southern crabgrass, herbicidal effect (criteria 0-5): AAH 320 g/ha, evaluated three weeks after application
Summary of the method: as §1

[5] = tested on: oval-leafed pondweed; assay: Test Example 2: herbicidal activity, application during weed generation under submerged conditions (Table 17, symbol C); format: in vivo, oval-leafed pondweed (Monochoria vaginalis); settings: AAH 320 g/ha; application during weed generation, submerged conditions
Summary of the method: (§4)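 Alluvial soil in Wagner pots was flooded to 4 cm depth and sown with the three weeds together; pots were kept in a greenhouse at 25° C. to 30° C. At the one to two leaf stage, an emulsion formulation diluted in water to a set rate went onto the water surface; scored three weeks later.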

[6] = tested on: Japanese bulrush; assay: Test Example 2: herbicidal activity, application during weed generation under submerged conditions (Table 17, symbol B); format: in vivo, Japanese bulrush (Schoenoplectus juncoides); settings: AAH 320 g/ha; application during weed generation, submerged conditions
Summary of the method: as §4

[7] = tested on: windgrass; assay: Test Example 5: herbicidal effect by foliage application, plastic box (Table 20, symbol L); format: in vivo, windgrass (Apera spica-venti); settings: foliage application; for L: windgrass, herbicidal effect (criteria 0-5): AAH 320 g/ha, evaluated three weeks after application
Summary of the method: as §1

[8] = tested on: redroot pigweed; assay: Test Example 4: herbicidal effect by soil treatment (Table 19, symbol N); format: in vivo, redroot pigweed (Amaranthus retroflexus); settings: amount of applied herbicide 320 g/ha
Summary of the method: as §3

[9] = tested on: green foxtail; assay: Test Example 5: herbicidal effect by foliage application, plastic box (Table 20, symbol G); format: in vivo, green foxtail (Setaria viridis); settings: foliage application; for G: green foxtail, herbicidal effect (criteria 0-5): AAH 320 g/ha, evaluated three weeks after application
Summary of the method: as §1

[10] = tested on: velvetleaf; assay: Test Example 5: herbicidal effect by foliage application, plastic box (Table 20, symbol M); format: in vivo, velvetleaf (Abutilon theophrasti); settings: foliage application; for M: velvetleaf, herbicidal effect (criteria 0-5): AAH 320 g/ha, evaluated three weeks after application
Summary of the method: as §1

[11] = tested on: velvetleaf; assay: Test Example 4: herbicidal effect by soil treatment (Table 19, symbol M); format: in vivo, velvetleaf (Abutilon theophrasti); settings: amount of applied herbicide 320 g/ha
Summary of the method: as §3

[12] = tested on: Japanese bulrush; assay: Test Example 1: herbicidal activity, application before weed generation under submerged conditions (Table 16, symbol B); format: in vivo, Japanese bulrush (Schoenoplectus juncoides); settings: 320 g/ha applied herbicide
Summary of the method: as §2

[13] = tested on: barnyard grass; assay: Test Example 3: herbicidal effect by foliage application, Wagner pot (Table 18, symbol H); format: in vivo, barnyard grass (Echinochloa crus-galli); settings: for herbicidal effect on H: barnyard grass: amount of applied herbicide 320 g/ha
Summary of the method: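 Plants were sown in alluvial soil held under 0.1–0.5 cm standing water and grown 14 days in a greenhouse at 25–30 °C. An emulsifiable formulation, water-diluted to the set dose, was then sprayed onto the foliage, and effects were scored three weeks later using previously defined criteria.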

[14] = tested on: blackgrass; assay: Test Example 5: herbicidal effect by foliage application, plastic box (Table 20, symbol J); format: in vivo, blackgrass (Alopecurus myosuroides); settings: foliage application; for J: blackgrass, herbicidal effect (criteria 0-5): AAH 320 g/ha, evaluated three weeks after application
Summary of the method: as §1

[15] = tested on: blackgrass; assay: Test Example 4: herbicidal effect by soil treatment (Table 19, symbol J); format: in vivo, blackgrass (Alopecurus myosuroides); settings: amount of applied herbicide 320 g/ha
Summary of the method: as §3

[16] = tested on: barnyard grass; assay: Test Example 4: herbicidal effect by soil treatment (Table 19, symbol H); format: in vivo, barnyard grass (Echinochloa crus-galli); settings: amount of applied herbicide 320 g/ha
Summary of the method: as §3

[17] = tested on: green foxtail; assay: Test Example 4: herbicidal effect by soil treatment (Table 19, symbol G); format: in vivo, green foxtail (Setaria viridis); settings: amount of applied herbicide 320 g/ha
Summary of the method: as §3

[18] = 320 g/ha, three weeks after application

SMILES | Herbicidal effect on C: oval-leafed pondweed (grade 0-5) [2] | herbicidal effect rating, C: oval-leafed pondweed [5] | herbicidal effect rating, B: Japanese bulrush [6] | Herbicidal effect on B: Japanese bulrush (grade 0-5) [12] | R: persian speedwell, herbicidal effect (criteria 0-5) [1] | herbicidal effect on R: persian speedwell [3] | F: southern crabgrass, herbicidal effect (criteria 0-5) [4] | herbicidal effect on G: green foxtail [17] | L: windgrass, herbicidal effect (criteria 0-5) [7] | herbicidal effect on N: redroot pigweed [8] | G: green foxtail, herbicidal effect (criteria 0-5) [9] | M: velvetleaf, herbicidal effect (criteria 0-5) [10] | herbicidal effect on M: velvetleaf [11] | herbicidal effect on H: barnyard grass [13] | J: blackgrass, herbicidal effect (criteria 0-5) [14] | herbicidal effect on H: barnyard grass [16] | further results
CCCCOc1ccc(-c2sc3ccccc3c2-c2c(OC(=O)CCC)c(C)nn(C)c2=O)cc1 [1-025] | 4 (Herbicidal rate of 70% or more and less than 90%) | 3 (Herbicidal rate of 40% or more and less than 70%) | 3 (Herbicidal rate of 40% or more and less than 70%) | 5 (Herbicidal rate of 90% or more (almost completely withered)) | – | – | – | – | – | – | – | – | – | – | – | – | herbicidal effect grade, R: persian speedwell [1, 18]: 5 (Herbicidal rate of 90% or more (almost completely withered)); herbicidal effect rating, R: persian speedwell [3]: 3 (Herbicidal rate of 40% or more and less than 70%); herbicidal effect grade, F: southern crabgrass [4, 18]: 3 (Herbicidal rate of 40% or more and less than 70%); herbicidal effect grade, L: windgrass [7, 18]: 0 (Herbicidal rate of 5% or less (almost no effect)); herbicidal effect rating, N: redroot pigweed [8]: 5 (Herbicidal rate of 90% or more (almost completely withered)); herbicidal effect grade, G: green foxtail [9, 18]: 3 (Herbicidal rate of 40% or more and less than 70%); herbicidal effect grade, M: velvetleaf [10, 18]: 5 (Herbicidal rate of 90% or more (almost completely withered)); herbicidal effect rating, M: velvetleaf [11]: 0 (Herbicidal rate of 5% or less (almost no effect)); herbicidal effect on H (barnyard grass), rating 0-5 ([13]; 320 g/ha): 5 (Herbicidal rate of 90% or more (almost completely withered)); herbicidal effect grade, J: blackgrass [14, 18]: 0 (Herbicidal rate of 5% or less (almost no effect)); herbicidal effect rating, J: blackgrass [15]: 0 (Herbicidal rate of 5% or less (almost no effect)); herbicidal effect rating, H: barnyard grass [16]: 0 (Herbicidal rate of 5% or less (almost no effect))
C=C(C)C(=O)Oc1c(C)nn(C)c(=O)c1-c1c(-c2ccc(OC(F)F)cc2)sc2ccc(F)cc12 [2-281] | 4 (Herbicidal rate of 70% or more and less than 90%) | 5 (Herbicidal rate of 90% or more (almost completely withered)) | 4 (Herbicidal rate of 70% or more and less than 90%) | 5 (Herbicidal rate of 90% or more (almost completely withered)) | 5 (Herbicidal rate of 90% or more (almost completely withered)) | 5 (Herbicidal rate of 90% or more (almost completely withered)) | 4 (Herbicidal rate of 70% or more and less than 90%) | 4 (Herbicidal rate of 70% or more and less than 90%) | 5 (Herbicidal rate of 90% or more (almost completely withered)) | 5 (Herbicidal rate of 90% or more (almost completely withered)) | 4 (Herbicidal rate of 70% or more and less than 90%) | 5 (Herbicidal rate of 90% or more (almost completely withered)) | 4 (Herbicidal rate of 70% or more and less than 90%) | 5 (Herbicidal rate of 90% or more (almost completely withered)) | 4 (Herbicidal rate of 70% or more and less than 90%) | 4 (Herbicidal rate of 70% or more and less than 90%) | –
C=CCOC(=O)Oc1c(C)nn(C)c(=O)c1-c1c(-c2ccc(OC(F)F)cc2)sc2ccc(F)cc12 [2-294] | 4 (Herbicidal rate of 70% or more and less than 90%) | 3 (Herbicidal rate of 40% or more and less than 70%) | 3 (Herbicidal rate of 40% or more and less than 70%) | 5 (Herbicidal rate of 90% or more (almost completely withered)) | 5 (Herbicidal rate of 90% or more (almost completely withered)) | 5 (Herbicidal rate of 90% or more (almost completely withered)) | 5 (Herbicidal rate of 90% or more (almost completely withered)) | 5 (Herbicidal rate of 90% or more (almost completely withered)) | 3 (Herbicidal rate of 40% or more and less than 70%) | 5 (Herbicidal rate of 90% or more (almost completely withered)) | 5 (Herbicidal rate of 90% or more (almost completely withered)) | 5 (Herbicidal rate of 90% or more (almost completely withered)) | 5 (Herbicidal rate of 90% or more (almost completely withered)) | 5 (Herbicidal rate of 90% or more (almost completely withered)) | 4 (Herbicidal rate of 70% or more and less than 90%) | 5 (Herbicidal rate of 90% or more (almost completely withered)) | –
C=CCSCc1ccc(-c2sc3ccc(F)cc3c2-c2c(O)c(C)nn(C)c2=O)cc1 [2-323] | 0 (Herbicidal rate of 5% or less (almost no effect)) | 0 (Herbicidal rate of 5% or less (almost no effect)) | 0 (Herbicidal rate of 5% or less (almost no effect)) | 2 (Herbicidal rate of 20% or more and less than 40%) | 5 (Herbicidal rate of 90% or more (almost completely withered)) | – | 5 (Herbicidal rate of 90% or more (almost completely withered)) | 3 (Herbicidal rate of 40% or more and less than 70%) | 5 (Herbicidal rate of 90% or more (almost completely withered)) | 5 (Herbicidal rate of 90% or more (almost completely withered)) | 5 (Herbicidal rate of 90% or more (almost completely withered)) | 5 (Herbicidal rate of 90% or more (almost completely withered)) | 1 (Herbicidal rate of 5% or more and less than 20%) | 5 (Herbicidal rate of 90% or more (almost completely withered)) | 4 (Herbicidal rate of 70% or more and less than 90%) | 0 (Herbicidal rate of 5% or less (almost no effect)) | herbicidal effect on J: blackgrass [15]: 0 (Herbicidal rate of 5% or less (almost no effect))
COCCSCc1ccc(-c2sc3ccc(F)cc3c2-c2c(O)c(C)nn(C)c2=O)cc1 [2-327] | 3 (Herbicidal rate of 40% or more and less than 70%) | 0 (Herbicidal rate of 5% or less (almost no effect)) | 2 (Herbicidal rate of 20% or more and less than 40%) | 3 (Herbicidal rate of 40% or more and less than 70%) | 5 (Herbicidal rate of 90% or more (almost completely withered)) | 5 (Herbicidal rate of 90% or more (almost completely withered)) | 4 (Herbicidal rate of 70% or more and less than 90%) | 4 (Herbicidal rate of 70% or more and less than 90%) | 5 (Herbicidal rate of 90% or more (almost completely withered)) | 4 (Herbicidal rate of 70% or more and less than 90%) | 5 (Herbicidal rate of 90% or more (almost completely withered)) | 5 (Herbicidal rate of 90% or more (almost completely withered)) | 1 (Herbicidal rate of 5% or more and less than 20%) | 5 (Herbicidal rate of 90% or more (almost completely withered)) | 4 (Herbicidal rate of 70% or more and less than 90%) | 3 (Herbicidal rate of 40% or more and less than 70%) | –
